# According to PubChem BioAssay AID256 (DTP/NCI, 2004):
# Values joined by “and” are separate entries in the source; they are usually repeats but may differ in a detail not shown here. Equal values may be shown once. Toxic doses and inconclusive results are not listed.
# Test system: CD2F1 mice, L1210 leukemia ip, survival T/C
# Experiment: NCI In Vivo Anticancer Drug Screen. Data for tumor model L1210 Leukemia (intraperitoneal) in CD2F1 (CDF1) mice
# Conditions: higher = longer survival
# Procedure, shortened: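 Tumor-bearing mice (transplanted tumor) were split into treated and vehicle control groups, and the measured endpoint of each treated group was divided by that of its vehicle controls.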
# [1] = endpoint: mean survival time, dose: 100.0 mg/kg/injection, schedule: Q01DX001 (ip), vehicle: saline with Tween-80
# [2] = endpoint: mean survival time, dose: 100.0 mg/kg/injection, schedule: Q01DX009 (ip), vehicle: saline with Tween-80
# [3] = endpoint: mean survival time, dose: 100.0 mg/kg/injection, schedule: Q04DX003 (ip), vehicle: saline with Tween-80
# [4] = endpoint: mean survival time, dose: 200.0 mg/kg/injection, schedule: Q01DX001 (ip), vehicle: saline with Tween-80
# [5] = endpoint: mean survival time, dose: 200.0 mg/kg/injection, schedule: Q01DX009 (ip), vehicle: saline with Tween-80
# [6] = endpoint: mean survival time, dose: 200.0 mg/kg/injection, schedule: Q04DX003 (ip), vehicle: saline with Tween-80
# [7] = endpoint: mean survival time, dose: 400.0 mg/kg/injection, schedule: Q01DX001 (ip), vehicle: saline with Tween-80
# [8] = endpoint: mean survival time, dose: 400.0 mg/kg/injection, schedule: Q01DX009 (ip), vehicle: saline with Tween-80
# [9] = endpoint: mean survival time, dose: 400.0 mg/kg/injection, schedule: Q04DX003 (ip), vehicle: saline with Tween-80
# [10] = endpoint: mean survival time, dose: 100.0 mg/kg/injection, schedule: Q01DX001 (ip), vehicle: saline
# [11] = endpoint: mean survival time, dose: 200.0 mg/kg/injection, schedule: Q01DX001 (ip), vehicle: saline
# [12] = endpoint: mean survival time, dose: 400.0 mg/kg/injection, schedule: Q01DX001 (ip), vehicle: saline
# [13] = endpoint: mean survival time, dose: 50.0 mg/kg/injection, schedule: Q01DX009 (ip), vehicle: saline with Tween-80
# [14] = endpoint: mean survival time, dose: 100.0 mg/kg/injection, schedule: Q01DX009 (ip), vehicle: Klucel (hydroxypropylcellulose) (HPC)
# [15] = endpoint: mean survival time, dose: 50.0 mg/kg/injection, schedule: Q01DX009 (ip), vehicle: Klucel (hydroxypropylcellulose) (HPC)
# [16] = endpoint: mean survival time, dose: 200.0 mg/kg/injection, schedule: Q01DX009 (ip), vehicle: Klucel (hydroxypropylcellulose) (HPC)
# [17] = endpoint: mean survival time, dose: 100.0 mg/kg/injection, schedule: Q04DX003 (ip), vehicle: Klucel (hydroxypropylcellulose) (HPC)
# [18] = endpoint: mean survival time, dose: 200.0 mg/kg/injection, schedule: Q04DX003 (ip), vehicle: Klucel (hydroxypropylcellulose) (HPC)
# [19] = endpoint: mean survival time, dose: 400.0 mg/kg/injection, schedule: Q04DX003 (ip), vehicle: Klucel (hydroxypropylcellulose) (HPC)
smiles,measurement,setting,value
C#CC(C)(C)CC(=O)O,T/C,"endpoint: mean survival time, dose: 100.0 mg/kg/injection, schedule: Q01DX009 (ip), vehicle: saline",102 % of control
same,T/C,"endpoint: mean survival time, dose: 200.0 mg/kg/injection, schedule: Q01DX009 (ip), vehicle: saline",101 % of control
same,T/C,"endpoint: mean survival time, dose: 400.0 mg/kg/injection, schedule: Q01DX009 (ip), vehicle: saline",98 % of control
CCC1(c2cccc([N+](=O)[O-])c2)OCCO1,T/C,[1],94 % of control
same,T/C,[2],102 % of control
same,T/C,[3],102 % of control
same,T/C,[4],94 % of control
same,T/C,[5],110 % of control
same,T/C,[6],107 % of control
same,T/C,[7],94 % of control
same,T/C,[8],103 % of control
same,T/C,[9],102 % of control
CCCCCCCCCCCCOc1ccc(Sc2ccc(OCCCCCCCCCCCC)cc2C)c(C)c1,T/C,[1],86 % of control
CN(Cc1ccc(C(=O)NC(CCC(=O)O)C(=O)O)cc1)Cc1cnc2nc(N)nc(N)c2n1 (stereo unspecified),T/C,"endpoint: mean survival time, dose: 1.0 mg/kg/injection, schedule: Q01DX009 (ip), vehicle: water",96 % of control
same,T/C,"endpoint: mean survival time, dose: 10.0 mg/kg/injection, schedule: Q01DX009 (ip), vehicle: water",114 % of control
CCCC(=O)c1cc(O)ccc1O,T/C,[10],101 % of control
same,T/C,[11],96 % of control
same,T/C,[12],104 % of control
O=C(C/C(=N\C(=S)Nc1cc(C(F)(F)F)ccc1Cl)NO)N1CCCC1,T/C,"endpoint: median survival time, dose: 12.5 mg/kg/injection, schedule: Q01DX009 (ip), vehicle: saline with Tween-80",101 % of control
same,T/C,"endpoint: median survival time, dose: 25.0 mg/kg/injection, schedule: Q01DX009 (ip), vehicle: saline with Tween-80",97 % of control and 105 % of control
same,T/C,"endpoint: median survival time, dose: 50.0 mg/kg/injection, schedule: Q01DX009 (ip), vehicle: saline with Tween-80",102 % of control (2×) and 106 % of control
same,T/C,"endpoint: median survival time, dose: 100.0 mg/kg/injection, schedule: Q01DX009 (ip), vehicle: saline with Tween-80",108 % of control and 109 % of control
same,T/C,"endpoint: median survival time, dose: 200.0 mg/kg/injection, schedule: Q01DX009 (ip), vehicle: saline with Tween-80",121 % of control and 122 % of control and 123 % of control
same,T/C,"endpoint: median survival time, dose: 300.0 mg/kg/injection, schedule: Q01DX009 (ip), vehicle: saline with Tween-80",86 % of control
CN=C(NC)c1ccc(NC(=O)c2ccc(C(=O)Nc3ccc(C(=NC)NC)cc3)c(N)c2)cc1,T/C,"endpoint: mean survival time, dose: 2.25 mg/kg/injection, schedule: Q01DX Z (ip), vehicle: water",176 % of control
same,T/C,"endpoint: mean survival time, dose: 4.5 mg/kg/injection, schedule: Q01DX Z (ip), vehicle: water",176 % of control
CCCN(CCC)c1c([N+](=O)[O-])cc(C(N)=O)cc1[N+](=O)[O-],T/C,"endpoint: mean survival time, dose: 12.5 mg/kg/injection, schedule: Q01DX009 (ip), vehicle: saline with Tween-80",96 % of control
same,T/C,"endpoint: mean survival time, dose: 25.0 mg/kg/injection, schedule: Q01DX009 (ip), vehicle: saline with Tween-80",96 % of control
same,T/C,[13],90 % of control
CN(C)N=Nc1cc(Cl)cc(C(N)=O)c1Cl,T/C,"endpoint: mean survival time, dose: 88.0 mg/kg/injection, schedule: Q01DX009 (ip), vehicle: saline with Tween-80",123 % of control
same,T/C,"endpoint: mean survival time, dose: 177.0 mg/kg/injection, schedule: Q01DX009 (ip), vehicle: saline with Tween-80",120 % of control
same,T/C,[8],96 % of control
CC(C)C/C=N/NC(=O)c1ccc[n+](C)c1,T/C,"endpoint: mean survival time, dose: 50.0 mg/kg/injection, schedule: Q01DX001 (ip), vehicle: saline",107 % of control
same,T/C,[10],109 % of control
same,T/C,[11],103 % of control
[Cl][Pt+2][Br].[NH-]CC[NH-],T/C,"endpoint: mean survival time, dose: 0.47 mg/kg/injection, schedule: Q01DX009 (ip), vehicle: saline with Tween-80",115 % of control
same,T/C,"endpoint: mean survival time, dose: 0.95 mg/kg/injection, schedule: Q01DX009 (ip), vehicle: saline with Tween-80",105 % of control
same,T/C,"endpoint: mean survival time, dose: 1.9 mg/kg/injection, schedule: Q01DX009 (ip), vehicle: saline with Tween-80",110 % of control
same,T/C,"endpoint: mean survival time, dose: 3.8 mg/kg/injection, schedule: Q04DX003 (ip), vehicle: saline with Tween-80",101 % of control
same,T/C,"endpoint: mean survival time, dose: 7.5 mg/kg/injection, schedule: Q01DX009 (ip), vehicle: saline with Tween-80",94 % of control
same,T/C,"endpoint: mean survival time, dose: 7.5 mg/kg/injection, schedule: Q04DX003 (ip), vehicle: saline with Tween-80",121 % of control
Cc1ccc2nc(-c3ccc(NC(=O)c4ccc(C(=O)Nc5ccc(-c6nc7ccc(C)cc7s6)cc5)cc4)cc3)sc2c1,T/C,[10],89 % of control
same,T/C,[11],89 % of control
same,T/C,[12],86 % of control
CC1=CC(=Nc2ccc(N(CCCl)CCCl)cc2)C=C(C)C1=O,T/C,"endpoint: mean survival time, dose: 6.25 mg/kg/injection, schedule: Q01DX009 (ip), vehicle: Klucel (hydroxypropylcellulose) (HPC)",115 % of control and 108 % of control
same,T/C,[14],86 % of control and 96 % of control
COc1ccc(C(C)c2ccccc2)cc1 (stereo unspecified),T/C,[2],97 % of control
same,T/C,[5],95 % of control
same,T/C,[8],97 % of control
O=c1ccn(Cc2cccc([N+](=O)[O-])c2)c(=O)[nH]1,T/C,[2],106 % of control
same,T/C,[5],104 % of control
same,T/C,[8],102 % of control
COc1ccc(NC(=O)Oc2ccccc2F)c(Cl)c1,T/C,[15],96 % of control
same,T/C,[14],107 % of control
same,T/C,[16],104 % of control
COC(=O)Cc1cc(O)c(C(=O)OC)c(O)c1C(=O)OC,T/C,[1],103 % of control
same,T/C,[4],98 % of control
same,T/C,[7],98 % of control
CNC(Cc1ccccc1)c1ccccc1 (stereo unspecified),T/C,"endpoint: mean survival time, dose: 25.0 mg/kg/injection, schedule: Q04DX003 (ip), vehicle: saline with Tween-80",91 % of control
same,T/C,"endpoint: mean survival time, dose: 50.0 mg/kg/injection, schedule: Q04DX003 (ip), vehicle: saline with Tween-80",93 % of control
same,T/C,[3],95 % of control and 97 % of control
Cc1ccc([N+](=O)[O-])cc1NC(=O)Nc1cc([N+](=O)[O-])ccc1F,T/C,[15],112 % of control
same,T/C,[14],101 % of control
same,T/C,[16],101 % of control
CCCSC(=O)Nc1cccc(OC(=O)NC)c1,T/C,[3],99 % of control
same,T/C,[6],94 % of control
same,T/C,[9],99 % of control
O=C1NC(=O)C(Cc2ccccc2)C(=O)N1,T/C,[13],92 % of control
same,T/C,[2],96 % of control
same,T/C,[5],96 % of control
O=C1c2ccccc2C(=O)c2c(NCCSCCO)ccc(NCCSCCO)c21,T/C,"endpoint: mean survival time, dose: 16.0 mg/kg/injection, schedule: Q01DX009 (ip), vehicle: Klucel (hydroxypropylcellulose) (HPC)",100 % of control
same,T/C,"endpoint: mean survival time, dose: 32.0 mg/kg/injection, schedule: Q01DX009 (ip), vehicle: Klucel (hydroxypropylcellulose) (HPC)",102 % of control
same,T/C,"endpoint: mean survival time, dose: 64.0 mg/kg/injection, schedule: Q01DX009 (ip), vehicle: Klucel (hydroxypropylcellulose) (HPC)",93 % of control
same,T/C,"endpoint: mean survival time, dose: 128.0 mg/kg/injection, schedule: Q01DX009 (ip), vehicle: Klucel (hydroxypropylcellulose) (HPC)",93 % of control
same,T/C,"endpoint: mean survival time, dose: 256.0 mg/kg/injection, schedule: Q01DX009 (ip), vehicle: Klucel (hydroxypropylcellulose) (HPC)",102 % of control
CCOC(=O)Nc1cccc(Cl)c1Cl,T/C,[2],97 % of control
same,T/C,[5],102 % of control
same,T/C,[8],105 % of control
CN1C(/C(C(=O)C(F)(F)F)=C(\O)C(F)(F)F)=NCc2ccccc21,T/C,[17],102 % of control
same,T/C,[18],98 % of control
same,T/C,[19],98 % of control
CC(=O)NC1=NC(=O)/C(=C/Cc2cccs2)N1C,T/C,[2],101 % of control
same,T/C,[5],108 % of control
CC(C)CC(Br)C(=O)NCC(=O)NC(Cc1ccccc1)C(=O)O (stereo unspecified),T/C,[3],106 % of control
same,T/C,[6],97 % of control
same,T/C,[9],96 % of control
CC(=O)c1c(C)cc(=O)[nH]c1C,T/C,"endpoint: mean survival time, dose: 100.0 mg/kg/injection, schedule: Q04DX002 (ip), vehicle: saline with Tween-80",96 % of control
same,T/C,"endpoint: mean survival time, dose: 200.0 mg/kg/injection, schedule: Q04DX002 (ip), vehicle: saline with Tween-80",96 % of control
same,T/C,"endpoint: mean survival time, dose: 400.0 mg/kg/injection, schedule: Q04DX002 (ip), vehicle: saline with Tween-80",100 % of control
CCNC(=O)OCCc1c2ccccc2nc2ccccc12,T/C,"endpoint: mean survival time, dose: 100.0 mg/kg/injection, schedule: Q04DX002 (ip), vehicle: other",105 % of control and 102 % of control
same,T/C,"endpoint: mean survival time, dose: 200.0 mg/kg/injection, schedule: Q04DX002 (ip), vehicle: other",97 % of control and 90 % of control
same,T/C,"endpoint: mean survival time, dose: 400.0 mg/kg/injection, schedule: Q04DX002 (ip), vehicle: other",94 % of control and 97 % of control
O=C(O)C(=CCc1cccc2ccccc12)C(=O)O,T/C,[17],101 % of control
same,T/C,[18],100 % of control
same,T/C,[19],103 % of control
C[n+]1c(/C=C\c2cccc([N+](=O)[O-])c2)ccc2ccccc21,T/C,[1],106 % of control
same,T/C,[2],87 % of control
same,T/C,[4],95 % of control
same,T/C,[5],91 % of control
same,T/C,[7],107 % of control
same,T/C,[8],95 % of control
